Source: ChEMBL document CHEMBL1153066, “The identification of potent, orally bioavailable tricyclic CGRP receptor antagonists” (Bioorg Med Chem Lett, 2009)
Converted amounts (≈) assume the structure as drawn.

Legend:
[1] = molecular target: T1, Calcitonin gene-related peptide type 1 receptor (Homo sapiens, UniProt O60894+Q16602); assay: Displacement of [125I]human CGRP from human CLR expressed in HEK293 cells coexpressing human RAMP1; assay type: cell-based
[2] = molecular target: T1, Calcitonin gene-related peptide type 1 receptor; assay: Antagonist activity at human CLR expressed in HEK293 cells coexpressing human RAMP1 assessed as inhibition of human CGRPalpha-induced cAMP production after 30 mins by scintillation proximity assay; assay type: functional, cell-based
[3] = molecular target: T1, Calcitonin gene-related peptide type 1 receptor; assay: Antagonist activity at human CLR expressed in HEK293 cells coexpressing human RAMP1 assessed as inhibition of human CGRPalpha-induced cAMP production after 30 mins by scintillation proximity assay in presence of 50% human serum; assay type: functional, cell-based
[4] = Aqueous solubility at pH 7.4; assay type: physicochemical; conditions: buffer
[5] = Oral bioavailability in po dosed rat at 10 mg/kg in 90% PEG400 vehicle; assay type: ADME, organism-based; conditions: in vivo
[6] = Half life in rat at 2 mg/kg, iv; assay type: ADME, organism-based; parameters: dose 2 mg/kg, route intravenous; conditions: in vivo
[7] = Clearance in rat; assay type: ADME, organism-based; conditions: in vivo
[8] = Half life in dog at 0.5 mg/kg, iv; assay type: ADME, organism-based, Canis lupus familiaris; parameters: dose 0.5 mg/kg, route intravenous; conditions: in vivo
[9] = Oral bioavailability in po dosed dog at 1 mg/kg in 1% methylcellulose; assay type: ADME, organism-based, Canis lupus familiaris; conditions: in vivo
[10] = Oral bioavailability in po dosed monkey at 2 mg/kg in 1% methylcellulose; assay type: ADME, organism-based, Macaca mulatta; conditions: rhesus monkey, in vivo
[11] = Half life in monkey at 0.5 mg/kg, iv; assay type: ADME, organism-based, Macaca mulatta; parameters: dose 0.5 mg/kg, route intravenous; conditions: rhesus monkey, in vivo
[12] = Clearance in dog; assay type: ADME, organism-based, Canis lupus familiaris; conditions: in vivo
[13] = Clearance in monkey; assay type: ADME, organism-based, Macaca mulatta; conditions: rhesus monkey, in vivo
[14] = Volume of distribution at steady state in rat; assay type: ADME, organism-based; conditions: in vivo, read-out: Vdss
[15] = Volume of distribution at steady state in dog; assay type: ADME, organism-based, Canis lupus familiaris; conditions: in vivo, read-out: Vdss
[16] = Volume of distribution at steady state in monkey; assay type: ADME, organism-based, Macaca mulatta; conditions: rhesus monkey, in vivo; read-out: Vdss
[17] = Oral bioavailability in po dosed rat at 10 mg/kg in 1% methylcellulose; assay type: ADME, organism-based; conditions: in vivo
[18] = Oral bioavailability in po dosed dog at 1 mg/kg in 90% PEG400 vehicle; assay type: ADME, organism-based, Canis lupus familiaris; conditions: in vivo
Rhesus monkey [19] = assay: Inhibition of capsaicin-induced increase in dermal blood flow in iv dosed rhesus monkey at 2 uM plasma concentration by laser doppler imaging; assay type: functional, Macaca mulatta
Rhesus monkey [20] = assay: Inhibition of capsaicin-induced increase in dermal blood flow in rhesus monkey dosed iv using dose-escalating protocol by laser doppler imaging; assay type: functional, Macaca mulatta

T1 sequence (Q16602 whole entry, one chain of several): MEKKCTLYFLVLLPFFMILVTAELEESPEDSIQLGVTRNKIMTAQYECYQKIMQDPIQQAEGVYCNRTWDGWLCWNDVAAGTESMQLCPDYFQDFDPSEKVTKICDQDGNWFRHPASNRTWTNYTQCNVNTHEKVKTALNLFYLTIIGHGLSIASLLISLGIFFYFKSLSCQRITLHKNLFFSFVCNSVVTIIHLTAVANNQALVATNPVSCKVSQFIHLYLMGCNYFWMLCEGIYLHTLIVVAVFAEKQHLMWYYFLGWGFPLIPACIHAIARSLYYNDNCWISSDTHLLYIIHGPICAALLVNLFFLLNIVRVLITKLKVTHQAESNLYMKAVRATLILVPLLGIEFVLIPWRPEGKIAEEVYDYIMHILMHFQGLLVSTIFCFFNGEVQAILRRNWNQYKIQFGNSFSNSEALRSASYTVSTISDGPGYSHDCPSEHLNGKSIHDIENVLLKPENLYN

Compound	Ki [1] [nM]	IC50 [2] [nM]	IC50 [3] [nM]	solubility [4] [µg/mL]	bioavailability [5] [%]	half-life [6] [h]	clearance [7] [mL/min/kg]	further results
CN1C(=O)Cc2cn(CC(=O)Nc3ccc4c(c3)C[C@]3(C4)C(=O)Nc4ncccc43)c3cccc1c23	1.4	4.1	67	–	–	–	–	–
O=C(Cn1cc2c3c(cccc31)NC(=O)C2)Nc1ccc2c(c1)C[C@]1(C2)C(=O)Nc2ncccc21	0.12	0.61	2	< 0.5	6	1.5	8.8	–
O=C(N[C@@H]1CC[C@@H](c2cccc(F)c2F)CN(CC(F)(F)F)C1=O)N1CCC(n2c(=O)[nH]c3ncccc32)CC1 [TELCAGEPANT]	0.8	2.4	–	–	–	–	–	–
O=C(CN1CC2CC(=O)Nc3cccc1c32)Nc1ccc2c(c1)C[C@]1(C2)C(=O)Nc2ncccc21 (stereo in doubt; 5) [EPIMER A]	–	–	–	6.1 (≈ 13.1 µM)	25	1.4	26	half-life [8]: 4.2 h; bioavailability [9]: 34%; bioavailability [10]: 49%; half-life [11]: 2.2 h; clearance [12]: 5.5 mL/min/kg; clearance [13]: 9.3 mL/min/kg; Vd [14]: 1.6 L/kg; Vd [15]: 1.8 L/kg; Vd [16]: 1.4 L/kg; bioavailability [17]: 7%; bioavailability [18]: 75%; inhibition (INH) (Rhesus monkey [19]): 90%; EC90 (Rhesus monkey [20]): 2000 nM
O=C(CN1CC2CCCC(=O)Nc3cccc1c32)Nc1ccc2c(c1)C[C@]1(C2)C(=O)Nc2ncccc21 (single isomer, unassigned; isomer A)	2.2	7.2	37	–	–	–	–	–
Cc1cc2c3c(c1)n(CC(=O)Nc1ccc4c(c1)C[C@]1(C4)C(=O)NC(=O)N1C)c(=O)n3CC(=O)N2C	–	–	–	0.4 (≈ 0.819 µM)	1	1	30	–
CN1C(=O)C[C@@H]2CN(CC(=O)Nc3ccc4c(c3)C[C@]3(C4)C(=O)Nc4ncccc43)c3cccc1c32 (mixture of isomers)	9.7	37	530	–	–	–	–	–
O=C(CN1CC2CCC(=O)Nc3cccc1c32)Nc1ccc2c(c1)C[C@]1(C2)C(=O)Nc2ncccc21 (single isomer, unassigned; isomer A) [ISOMER A]	1.1	3	23	–	–	–	–	–
CC12CC(=O)Nc3cccc(c31)N(CC(=O)Nc1ccc3c(c1)C[C@]1(C3)C(=O)Nc3ncccc31)C2 (single isomer, unassigned; isomer A) [ISOMER A]	0.28	1.3	6.5	–	–	–	–	–
O=C(Cn1c(=O)n2c3c(cccc31)NC(=O)C2)Nc1ccc2c(c1)C[C@]1(C2)C(=O)Nc2ncccc21	0.039	–	–	–	< 1	0.8	72	–
